Legend:
[1] = system: hRMVECs cocultured with rMC-1 cells; experiment: Cell proliferation in a co-culture system model (MTT); type: cell-based, human; settings: rMC-1 cells treated with YC-1 100 μM for 24 hours, normoxic and hypoxic conditions
Procedure: To test the influence of Móller cells [rMC-1] on the hRMVECs proliferation, rMC-1 [2×10^5 cells cm—2] were plated in a transwell insert [Millipore, Billerica, Mass.] with […] pores and allowed to adhere overnight in 150 μL of CS—C complete medium [Cell Systems, Kirkland, Wash.], supplemented with 10% FBS and incubated at 37° C. under normoxic [5% CO2/95% air]. The rMC-1 cells were then incubated under normoxic [5% CO2/95% air], or hypoxic conditions. To establish hypoxic conditions, cells were placed in airtight chambers [BioSpherix, Redfield, N.Y.] that were flushed with a gas mixture of 5% CO2 and 95% N2. Oxygen concentrations within these chambers were maintained at 1.2% using Pro-Ox Model 110 O2 regulators. After treating the r-MC-1 cells with YC-1 [100 μM] for 24 hours, the insert was then placed into 24 well-plates, in which hRMVECs were plated at 5×10^3 cells cm^−2 and allowed to adhere overnight [FIG. 7B]. hRMVECs proliferation was evaluated using 3, […]-2,5-diphenyl tetrazolium bromide [MTT] colorimetric assay [Mosmann,1983], at 24, 48, 72, and 96 hours after coculture. During the last 4 hours of each day, […] of 5 mg/ml MTT [Millipore, Billerica, Mass.] was added in each well. Formed Formazan crystals were dissolved in […] DMSO and optical density was recorded at 492 nm. Experiments were performed on at least three independent occasions. […]

[2] = system: hRMVECs cocultured with rMC-1 cells; experiment: Cell migration in a co-culture system model (transwell); type: cell-based, human; settings: rMC-1 cells treated with YC-1 100 μM, normoxic and hypoxic conditions
Procedure: Migration assay of hRMVECs was carried out using the transwell insert with […] pore size. The inserts were coated with Extracellular matrix [ECM] [Millipore, Billerica, Mass.] and airdry up. Chemotaxis was induced by the control r-MClcells or the r-MC1 cells that were treated with YC-1 [100 μM], which were situated in the lower compartment. hRMVECs suspension [final concentration, 5×10^4 cells/well] was added to the upper compartment [FIG. 7B]. After incubated for 24 hours, the filters were washed and then fixed and stained with crystal violet [0.5% crystal violet and 20% methanol] for 30 min at room temperature. The filters were washed with distilled water, and the cells on the upper surface of the inserts were wiped with a cotton swab. The number of cells per field that migrated to the lower surface of the filters was determined microscopically. Five randomly chosen fields were counted per filter. Data were presented as a number of migrated cells [**P<0.01].

[3] = system: rMC-1 cells; experiment: Real time RT-PCR analysis, in vitro, rMC-1; type: cell-based
Procedure: A transformed Müller cell line [rMC-1] were grown in cell cultures in DMEM supplemented with 15% FBS, as well as with a fungicide mixture and 0.5% gentamicin in a humidified atmosphere of 5% CO2/95% air. Medium was changed every 2-3 days, and cells were grown to confluence in a 150-mm dish. Cells were split into 60-mm dishes and were used in the experiments when confluent. […] cells are immortalized rat retinal neurosensory/neuoroglial progenitor cells, by transfection with Adenovirus 12S E1A into the neonatal retinal tissue. […] cells express genes characteristic of neurons, as well as functional neuronal properties. […] cells were cultured in DMEM/F12 medium in a 1:1 mixture, supplemented with 5% FBS, 1.5 mM L-glutamine, 7.5 mM sodium pyruvate, 0.1 mM nonessential amino acids, 1×MEM, 0.37% sodium bicarbonate and 10 μg/ml gentamicin. Cells were incubated at 37° C. in the presence of 5% CO2. Human retinal microvascular endothelial cells [[…]][40,000 cells/well] were seeded in a 96-well plate and allowed to adhere overnight and incubated at 37° C. in normoxia. Cells were then cultured in 150 μl of CS-C medium supplemented with 10% FBS and in the presence of 1-100 μM YC-1 or DMSO [0.2%]. Cells were placed in airtight chambers [BioSpherix, Redfield, N.Y.] and the O2 tension was maintained at 1.2% by using Pro-Ox Model 110 O2 regulator [BioSpherix, Redfield, N.Y.]. The chamber was purged with a gas mixture of 5.32% CO2, and 93.48% N2. […] We used the primers summarized in [FIG. 6C] for RT-PCR. Gene-specific molecular beacons and primers were designed to encompass the genes of interest, with beacon's annealing site to overlap with the exon-exon junctions for additional specificity [Beacon Designer 6.0, Premier Biosoft International, Palo Alto, Calif., USA]. Threshold cycle [Ct] values for the different samples were utilized for the calculation of gene expression fold change using the formula 2 to the minus power of delta delta ct. Fold changes in the HIF-1, VEGF, PDGF-B, GFAP and iNOS gene relative to the β-actin endogenous control gene were determined by the following equation: fold change=2-Δ[ΔC T], where change in threshold cycle [ΔCT]=CT [gene of interest]-CT [β-actin] and Δ [ΔCT]=ΔCT [treated]-ΔCT [untreated].

[4] = rMC-1, hypoxia 48 hours, YC-1 25-100 μM, vs DMSO-treated hypoxic cells

SMILES: OCc1ccc(-c2nn(Cc3ccccc3)c3ccccc23)o1 [YC-1, 3-(5′-hydroxymethyl-2′-furyl)-1-benzylindazole]
- proliferation of hRMVECs in coculture [1]: significantly suppressed
- rMC-1 cells-induced hRMVECs migration [2]: significantly attenuated
- PDGF-B mRNA level [3, 4]: significant dose-dependent attenuations
- VEGF mRNA level [3, 4]: significant dose-dependent attenuations
- iNOS mRNA level [3, 4]: significant dose-dependent attenuations
- GFAP mRNA level ([3]; rMC-1, hypoxia, YC-1 25-100 μM, vs DMSO-treated hypoxic cells, normalized to β-actin): significant dose-dependent attenuations
- HIF-1α message level ([3]; rMC-1, pre- vs post-YC-1 treatment): no differences

— patent US20140163082A1, “PYRAZOLYL COMPOUNDS FOR USE IN REVERSING REACTIVE GLIOSIS” (priority 2011, published 2014)
